How the values were obtained:
db/db mice = experiment: Female db/db Mouse Assay, Study A: single dose part and dose response part (Example 14); format: in vivo
From the text: 0.5% Hydroxypropyl Methylcellulose (Methocel) used as vehicle/control.
Db/db mice are susceptible to Type 2 diabetes. […] All of the mice were quarantined for a period of one week before transfer to the animal procedure room. A drop of blood (about 2 microliters) was collected by tail puncture and glucose concentration was detected with a glucometer (OneTouch UltraSmart, Lifescan, Milpitas, Calif.). […] Animals were separated and single housed at least three days prior to the drug treatments to allow acclimation to the new surroundings.
In the second, dose response part of Study A, 48 mice were allocated into 4 treatment groups of 12 mice each.
The dosing volume was 5 mL/kg body weight (0.2 mL for 40 gram mice). The mice were fed ad lib throughout the study. A necropsy was completed 18 hours after last dosing.
Blood glucose levels were measured from blood collected through tail puncture using a glucometer at 1000 hour. The mice were anaesthetized with sodium pentobarbital (1 ml/kg, intraperitoneal [i.p.] injection, SleepAway, Fort Dodge, Iowa) and blood was drawn via cardiac puncture using 1 mL syringe and collected into heparinized tubes. White adipose tissues (WAT) (retroperitoneal and inguinal fat pads), brown adipose tissure (BAT) and skeletal muscles (gastrocnemius and soleus muscle) and stomach contents were dissected and weighed. Plasma samples were obtained by centrifuging whole blood at 2000˜3000 g for 10˜20 minutes at 4° C. and stored at −20° C. for further measurement of insulin, HDL, LDL, total cholesterol and triglyceride.
Plasma insulin concentrations were measured by in both studies using the appropriate rat/mouse insulin enzyme-linked immunosorbent assay (ELISA) kit (EZRMI-13K, LINCO Research, St. Charles, Mo.). Blood samples were diluted 1:4 in charcoal stripped mouse serum that was included in the ELISA kit. The rest of the procedure followed the manufacturers instruction. The total fluorescence was detected using an Orion 1 Microplate Luminometer (Berthold Detection Systems, Pforzheim, Germany).
According to manufacturers protocol, cholesterol measurement was an enzymatic method utilizing cholesterol esterase and cholesterol oxidase conversion followed by a Trinder endpoint; Elimination/catalase method was used for HDL measurement; an enzymatic method with a Trinder endpoint was used for triglyceride measurement.
Data from both parts of the Study (single dose and dose response) was analyzed using the standard two-tailed Student's t-test and are expressed below as means and standard errors.

[1] = single dose part, rosiglitazone 20 mg/kg
[2] = single dose part, rosiglitazone 20 mg/kg positive control
[3] = single dose part, rosiglitazone 20 mg/kg, plasma

| melting point | SMILES | total cholesterol concentrations elevated relative to vehicle (db/db mice; rosiglitazone, dose not given) | Brown Adipose Tissue (db/db mice; [1]) | Final weight Body weight (db/db mice; [1]) | Final weight Stomach contents (db/db mice; [1]) | Inguinal fat (db/db mice; [1]) | Muscle (db/db mice; [1]) | Retroperitoneal fat (db/db mice; [1]) | Total chow consumption Day 1-3 (db/db mice; [1]) | Total chow consumption Day 4-6 (db/db mice; [1]) | Total chow consumption Day 7-9 (db/db mice; [1]) | Glucose (db/db mice; [2]) | Insulin (db/db mice; [2]) | Cholesterol (db/db mice; [3]) | HDL (db/db mice; [3]) | LDL (db/db mice; [3]) | Ratio (Triglyceride to HDL) (db/db mice; [3]) | Triglyceride (db/db mice; [3]) | Ratio (fat/muscle) (db/db mice; single dose part, rosiglitazone 20 mg/kg, total inguinal and retroperitoneal fat/muscle weight) | weight gain (db/db mice; single dose part, rosiglitazone, p<0.05 vs vehicle 0.3±0.2 g) |
| --- | --- | --- | --- | --- | --- | --- | --- | --- | --- | --- | --- | --- | --- | --- | --- | --- | --- | --- | --- | --- |
| 100 to 101 °C | NS(=O)(=O)NCC1CCc2ccccc2O1 (centres unmarked) [Compound #10, Chroman-2-ylmethylsulfamide] |  |  |  |  |  |  |  |  |  |  |  |  |  |  |  |  |  |  |  |
|  | CN(CCOc1ccc(CC2SC(=O)NC2=O)cc1)c1ccccn1 (centres unmarked) [Rosiglitazone, rosiglitazone, reference compound] | 35.1% | 0.32 ± 0.02 g | 43 ± 1.0 g | 0.32 ± 0.04 g | 2.44 ± 0.11 g | 0.154 ± 0.00 g | 1.45 ± 0.10 g | 21 ± 0.8 g | 22 ± 0.9 g | 19 ± 0.7 g | 170 ± 23 mg/dL | 11.2 ± 2.3 ng/mL | 123 ± 8 mg/dL | 62.5 ± 3.2 mg/dL | 3.3 ± 0.3 mg/dL | 1.6 ± 0.3 | 105 ± 23 mg/dL | 25.4 ± 1.6 | 3.1 ± 0.4 g |

— patent publication US8497298B2, “Use of benzo-fused heterocycle sulfamide derivatives for lowering lipids and lowering blood glucose levels” (Janssen Pharmaceutica NV, priority 2005, dated 2013)
